Test results taken from article PMC7911889 (Viruses, 2021).

Target: SARS-CoV-2 3CL^pro (Severe acute respiratory syndrome coronavirus 2, UniProt P0DTD1)
Assay type: cell-based

SMILES | Effect on luciferase reporter activity / 3CL^pro inhibition (in words) | EC50 (read-out: EC50, SARS-CoV-2 3CLpro luciferase complementation assay) [µM]
CC(NC(=O)[C@H](Cc1ccccc1)NC(=O)OCc1ccccc1)C(=O)CF (stereo partly drawn) [Z-FA-FMK] | clearly inhibited SARS-CoV-2 3CL^pro | 26.3
CC(C)(C)NC(=O)N[C@H](C(=O)N1C[C@H]2[C@@H]([C@H]1C(=O)NC(CC1CCC1)C(=O)C(N)=O)C2(C)C)C(C)(C)C (stereo partly drawn) [Boceprevir] | clearly inhibited SARS-CoV-2 3CL^pro | –
